Laboratory results taken from PMC8308625, “Preclinical Studies in Anti-Trypanosomatidae Drug Development” (Pharmaceuticals, 2021).
Like-named read-outs stand apart in the source and are kept apart here.

What was measured:
T. cruzi [1] = tested on: T. cruzi; set-up: method as in Duffy et al., 2017; conditions: ref Duffy et al., 2017; cited from earlier work
P. falciparum = conditions: cited from earlier work
[2] = tested on: Leishmania donovani (amastigotes); conditions: cited from earlier work
T. b. brucei = conditions: ref Duffy et al., 2017; read-out: EC50 T. brucei brucei; cited from earlier work
[3] = tested on: L. infantum veterinary isolate (MCAN_UY_2015_gPL8); assay: Growth inhibition of L. infantum veterinary isolate promastigotes (resazurin); conditions: for Selectivity Index MΦ/Veterinary: EC50 J774.1 macrophages versus L. infantum veterinary isolate; for EC50: Leishmania infantum, read-out: EC50 L. infantum Veterinary
[4] = tested on: hepatocellular carcinoma (HepG2) cell line; conditions: cited from earlier work
[5] = Nonspecific cytotoxicity in murine macrophages (MTT); conditions: mouse, J774.1 murine macrophages
Protocol: (§1) Cell viability was then assessed using the 3-(4,5-dimethylthiazol-2-yl)-2,5-diphenyltetrazolium bromide (MTT) colorimetric assay [1]. […] All assays were performed in triplicate [35].

[6] = tested on: L. infantum reference strain (MHOM/BR/2002/LPC-RPV); assay: Growth inhibition of L. infantum reference strain promastigotes (resazurin); conditions: for Selectivity Index MΦ/Reference: EC50 J774.1 macrophages versus L. infantum reference strain; for EC50: Leishmania infantum, read-out: EC50 L. infantum Reference
Replicative DNA helicase = biological target: Replicative DNA helicase; set-up: method as in pubchem.ncbi.nlm.nih.gov; conditions: ref pubchem.ncbi.nlm.nih.gov; cited from earlier work
Hsf1 protein = tested on: Hsf1 protein; set-up: method as in pubchem.ncbi.nlm.nih.gov; conditions: ref pubchem.ncbi.nlm.nih.gov; cited from earlier work
[7] = tested on: Cell division cycle 42 (GTP binding protein, 25kDa); set-up: method as in pubchem.ncbi.nlm.nih.gov; conditions: ref pubchem.ncbi.nlm.nih.gov; cited from earlier work
[8] = biological target: Aldehyde dehydrogenase 1 family, member A1; set-up: method as in pubchem.ncbi.nlm.nih.gov; conditions: ref pubchem.ncbi.nlm.nih.gov; cited from earlier work
[9] = set-up: method as in data provided by the DNDi program, non-published; conditions: ref data provided by the DNDi program, non-published; cited from earlier work
[10] = biological target: Neuropeptide S receptor isoform A; set-up: method as in pubchem.ncbi.nlm.nih.gov; conditions: ref pubchem.ncbi.nlm.nih.gov; cited from earlier work
[11] = biological target: Sphingosine-1-phosphate receptor 4; set-up: method as in pubchem.ncbi.nlm.nih.gov; conditions: ref pubchem.ncbi.nlm.nih.gov; cited from earlier work
C. albicans = tested on: C. albicans; set-up: method as in pubchem.ncbi.nlm.nih.gov; conditions: ref pubchem.ncbi.nlm.nih.gov; read-out: EC50 C. albicans Growth in the Presence of Fluconazole; cited from earlier work
Candida albicans Biofilm = tested on: Candida albicans Biofilm; set-up: method as in Vila and Lopez-Ribot, 2017; conditions: ref Vila and Lopez-Ribot, 2017; read-out: EC50 Candida albicans Biofilm Inhibitor; cited from earlier work
L. amazonensis = assay: Growth inhibition of L. amazonensis promastigotes (resazurin); conditions: EC50 mammalian cell line/EC50 L. amazonensis
[12] = tested on: L. infantum reference strain (MHOM/BR/2002/LPC-RPV); conditions: cited from earlier work
T. cruzi [13] = conditions: Table 3, thiazolidene hydrazines; ref [13],[16],[19],[23],[25]; read-out: EC50 ± SD T. cruzi; cited from earlier work
[14] = tested on: J774.1 murine macrophages; assay: Nonspecific cytotoxicity in murine macrophages (MTT); conditions: Mus musculus, J774.1, read-out: EC50 ± SD MΦ
Protocol: as §1

L. braziliensis = conditions: Table 3, thiazolidene hydrazines; ref [13],[16],[19],[23],[25]; read-out: EC50 ± SD L. brazils; cited from earlier work
[15] = tested on: L. infantum veterinary isolate (MCAN_UY_2015_gPL8); conditions: cited from earlier work

## c1ccc(-c2nc(NC3CCCCC3)cc(C3CC3)n2)nc1 [MMV021013, N-Cyclohexyl-6-cyclopropyl-2-pyridin-2-ylpyrimidin-4-amine]
T. cruzi [1]
  EC50: 1.7 µM
P. falciparum; ref Ballell et al., 2013, read-out: EC50 P. falciparum
  EC50: 0.7 µM
[2]; ref Peña et al., 2015
  EC50: 0.8 µM
[2]; ref [23],[24]
  activity against the L. donovani form found in a mammalian host: significant activity
T. b. brucei
  EC50: 3.5 µM
[3]
  Selectivity Index MΦ/Veterinary: >167
  EC50: 0.3 ± 0.1 µM
[4]; ref Peña et al., 2015, read-out: EC50 HepG2 human cell line
  EC50: 400 µM
[5]
  EC50 at 48 h: > 50 µM
[6]
  Selectivity Index MΦ/Reference: >125
  EC50: 0.4 ± 0.1 µM

## COc1cccc(-n2nnnc2S(C)(=O)=O)c1 [MMV272144, 1-(3-Methoxyphenyl)-5-(methylsulfonyl)-1H-tetrazole]
Replicative DNA helicase
  EC50: 3.1 µM
Hsf1 protein
  EC50: 6.6 µM
[7]
  EC50: 15 µM
[8]
  EC50: 12.5 µM
[9]
  in vivo absorption: low
  metabolic stability: low
[3]
  Selectivity Index MΦ/Veterinary: >42
  EC50: 1.2 ± 0.1 µM
[10]
  EC50: 10 µM
[11]
  EC50: 1.3 µM
[5]
  EC50 at 48 h: > 50 µM
[6]
  Selectivity Index MΦ/Reference: >21
  EC50: 2.4 ± 0.3 µM
C. albicans
  EC50: 1.8 µM

## Cc1[nH]c2ccccc2c1[C@H](c1cccs1)N1CCN(C)CC1 [MMV688768, 2-Methyl-3-[(R)-(4-methylpiperazin-1-yl)-thiophen-2-ylmethyl]-1H-indole]
Candida albicans Biofilm
  EC50: 3.1 µM
P. falciparum; ref Duffy et al., 2017, read-out: EC50 P. falciparum ABS activity
  EC50: 4.7 µM
T. b. brucei
  EC50: 1.5 µM
[3]
  Selectivity Index MΦ/Veterinary: >7
  EC50: 6.8 ± 0.1 µM
[4]; ref Vila and Lopez-Ribot, 2017, read-out: EC50 HepG2 cell line
  EC50: 32 µM
[5]
  EC50 at 48 h: > 50 µM
[6]
  Selectivity Index MΦ/Reference: >5
  EC50: 9.8 ± 0.5 µM

## CCCCCCCCCCCCCCCCOP(=O)([O-])OCC[N+](C)(C)C [Miltefosine, reference compound]
L. amazonensis
  Selectivity Index MΦ/L. amaz: 10
[3]
  Selectivity Index MΦ/Veterinary: 12
[3]; EC50 mammalian cell line/EC50 L. infantum veterinary isolate
  Selectivity Index MΦ/Lin–Vet: 10
[12]; Miltefosine comparative data, ref [19], read-out: EC50 L. infantum Reference
  EC50: 5.3 ± 0.1 µM
[12]; Table 3, Miltefosine control, footnote f, ref [13],[16],[19],[23],[25], read-out: EC50 ± SD Lin–Ref
  EC50: 5.3 ± 0.1 µM
T. cruzi [13]
  EC50: 8 ± 2 µM
[14]
  EC50: 50 ± 7 µM
[5]
  EC50 at 48 h: 50 ± 7 µM
[6]
  Selectivity Index MΦ/Reference: 10
L. braziliensis
  EC50: 5 ± 2 µM
[15]; Miltefosine comparative data, ref [19], read-out: EC50 L. infantum Veterinary
  EC50: 4.1 ± 0.1 µM
[15]; Table 3, Miltefosine control, footnote f, ref [13],[16],[19],[23],[25], read-out: EC50 ± SD Lin–Vet
  EC50: 4.1 ± 0.1 µM
